Biological target: T1, APP695–CAPRIN1 interaction (Homo sapiens, UniProt P05067+Q14444)
T1 construct: 10xHis‐MBP‐APP695 (full‐length) alone was loaded; 10xHis (N); MBP (followed by a 3C site) (N); 10xHis (followed by a 3C site) (N); made in house; host or cells: Tni (Hi5) insect cells, baculovirus
Assay: SPR, APP695 onto immobilized CAPRIN1 with 0152
Format: binding
Settings: equimolar 0152 vs no compound
Description: SPR experiments were conducted to investigate the interaction between APP695 and CAPRIN1 proteins using a Biacore T200 instrument (Cytiva). Both proteins were expressed in Tni (Hi5) insect cells and purified to homogeneity via tandem affinity and ion‐exchange. Protein purity and integrity were confirmed by SDS‐PAGE and size‐exclusion chromatography prior to analysis. All experiments were performed in a running buffer consisting of 50 mM HEPES at […], 100 mM KCl, 10% glycerol, and 0.01% (v/v) Tween‐20 supplemented with 0.1% (w/v) Sarkosyl (pH 7.4). APP695 was serially diluted in running buffer to final concentrations of 15, 5, 1, and 0.3 µM. Chip Preparation: A CM5 sensor chip (Cytiva) was activated using a 1:1 (v/v) mixture of 0.1 M N‐hydroxysuccinimide (NHS) and 0.1 M N‐ethyl‐N′‐(3‐dimethylaminopropyl) carbodiimide (EDC) to generate reactive ester groups. CAPRIN1 was diluted to 50 µg/mL in 10 mM Hepes‐KOH buffer (pH 6.0) and immobilized on the chip surface via standard amine coupling to achieve immobilization. Unreacted sites were blocked with 1 M ethanolamine‐HCl (pH 8.5). A reference flow cell was prepared similarly but without protein immobilization to control for non‐specific binding and bulk refractive index changes. Binding assay: Binding interactions were measured at 25°C with a flow rate of 30 µL/min. APP695 solutions were injected over the CAPRIN1‐immobilized and reference flow cells for 45 s (association phase), followed by a 240 s dissociation phase with running buffer alone. Internal control injections for one concentration of APP695 were performed to ensure reproducibility for every round of the experiment. […] APP (1–300) was also tested for binding to CAPRIN1 under identical conditions. To assess potential non‐specific interactions, 0043 and 0152 were tested for binding to APP‐695 captured on a CM5 chip using a steady‐state model. Data analysis: Sensograms were processed using Biacore T200 Evaluation Software. […]

T1 sequence (P05067 18-695 isoform P05067-4 limits assumed): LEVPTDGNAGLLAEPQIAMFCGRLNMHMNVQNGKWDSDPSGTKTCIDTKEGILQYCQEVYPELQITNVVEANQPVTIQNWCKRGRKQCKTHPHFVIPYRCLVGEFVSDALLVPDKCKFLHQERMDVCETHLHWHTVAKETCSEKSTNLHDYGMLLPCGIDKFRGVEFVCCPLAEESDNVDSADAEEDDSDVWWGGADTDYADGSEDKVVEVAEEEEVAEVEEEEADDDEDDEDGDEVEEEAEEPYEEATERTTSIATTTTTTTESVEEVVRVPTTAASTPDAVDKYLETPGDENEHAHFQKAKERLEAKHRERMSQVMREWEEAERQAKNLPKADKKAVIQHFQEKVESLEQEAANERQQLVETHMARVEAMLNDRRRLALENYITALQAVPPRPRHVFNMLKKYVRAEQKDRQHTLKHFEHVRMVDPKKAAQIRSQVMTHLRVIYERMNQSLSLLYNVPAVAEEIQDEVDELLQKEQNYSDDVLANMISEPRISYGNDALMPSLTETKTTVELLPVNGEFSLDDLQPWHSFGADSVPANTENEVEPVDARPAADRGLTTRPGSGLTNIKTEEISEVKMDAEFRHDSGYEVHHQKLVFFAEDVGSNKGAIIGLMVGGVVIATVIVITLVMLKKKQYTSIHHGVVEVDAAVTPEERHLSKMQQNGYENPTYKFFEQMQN
T1 sequence (Q14444 whole entry): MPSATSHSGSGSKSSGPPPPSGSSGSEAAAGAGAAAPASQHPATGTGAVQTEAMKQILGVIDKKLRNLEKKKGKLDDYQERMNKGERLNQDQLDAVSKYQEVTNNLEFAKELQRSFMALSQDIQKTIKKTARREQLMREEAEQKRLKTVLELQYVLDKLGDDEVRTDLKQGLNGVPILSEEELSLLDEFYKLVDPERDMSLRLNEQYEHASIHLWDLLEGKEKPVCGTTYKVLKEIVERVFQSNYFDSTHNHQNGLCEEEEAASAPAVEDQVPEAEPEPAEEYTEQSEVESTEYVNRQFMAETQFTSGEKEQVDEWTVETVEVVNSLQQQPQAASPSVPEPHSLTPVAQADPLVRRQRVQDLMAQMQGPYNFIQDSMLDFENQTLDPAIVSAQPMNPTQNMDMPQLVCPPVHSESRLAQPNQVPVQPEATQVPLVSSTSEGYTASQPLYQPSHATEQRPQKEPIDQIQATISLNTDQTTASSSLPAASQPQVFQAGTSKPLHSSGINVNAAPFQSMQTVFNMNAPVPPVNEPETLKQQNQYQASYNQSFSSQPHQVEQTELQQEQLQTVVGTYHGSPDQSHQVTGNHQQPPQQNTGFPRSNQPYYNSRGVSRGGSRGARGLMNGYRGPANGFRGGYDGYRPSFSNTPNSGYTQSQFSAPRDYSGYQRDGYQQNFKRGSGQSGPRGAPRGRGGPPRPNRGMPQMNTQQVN

## COc1cccc(NC(=O)Nc2nc3ccc(C(=O)N4CCOCC4)cc3s2)c1 [compound 0152]
  Decrease of dissociation rate constant (Koff) of APP695–CAPRIN1: 10 fold
  Increase of association rate constant (Kon) of APP695–CAPRIN1: 3.5 fold
  Reduction of equilibrium dissociation constant (KD) of APP695–CAPRIN1: 36 fold
